This data set can be described thus: Human HepG2 cell viability assay in 384 well format. The data set is classed as toxicity, cell-based. Further details: dose 125 nL, time 70.5 hour; concentration not given beside the values. To be noted: HepG2 cells, read-out: Inhibition.
In the case of `COc1ccc(-c2cc(C(=O)Nc3nc[nH]n3)[nH]n2)cc1`, the cytotoxicity at 70.5 h was -12.1%. The result for `Cc1cnccc1CN1CCN(C)C2(CCC(=O)N(CC3CC3)CC2)C1` (stereo not given) reads -1.45%; that for `CCc1cccc(N2CCC(NC(=O)c3ccncc3)CC2)c1`, -4.49%. As for `CCOc1ccc(N(C)Cc2nnc(C)o2)cc1`, the figure is 19.3%; as for `c1cc2nccc(CC3CCCN(C4CCOCC4)CC3)c2cn1` (stereo not given), -1.46%.

On to `COC1CC2(CCN(Cc3ccc4c(c3)OCO4)CC2)C1`, for which the cytotoxicity at 70.5 h is -12.6%. As for `O=S(=O)(C1CC1)N1CCc2ncc(Cn3cncn3)n2CC1`, the figure is -3.06%.

As to `CCOC(=O)c1ccc(CNC(=O)c2ccncc2Cl)o1`, the cytotoxicity at 70.5 h was -7.26%. As for `CC(C)CNC(=O)CN(C)S(C)(=O)=O`, the figure is 0.607%. As for `Cc1[nH]ncc1C(=O)N1CCCC(c2ccn[nH]2)C1` (stereo not given), the figure is -12.2%. The result for `CCc1ccc(CNC(=O)Nc2cc(C)on2)s1` reads -9.95%; that for `CCOc1ccc(C(F)(F)F)cc1NC(=O)NCc1noc(C)n1`, -8.58%; that for `CC(Cn1cccn1)Nc1cnc2ccccc2n1` (stereo not given), -0.212%. Regarding `Cn1c(Cn2cccn2)nnc1C1CCCN(c2ccncc2)C1` (stereo not given), the cytotoxicity at 70.5 h was -8.1%. As for `CC(C)c1nc(CN2CCN(C(=O)CC3CCCCC3)CC2)no1`, the figure is 7.95%. Turning to `COc1cc(OC)cc(-c2noc(CN)n2)c1`, the cytotoxicity at 70.5 h is 45.5%. As for `Cc1noc(NC(=O)c2cccc(Br)c2)n1`, the figure is -0.644%; as for `O=C(CSCC1CC1)N1CCCC(c2nccn2Cc2ccccn2)C1` (stereo not given), 0.457%. As for `CCCN1CCN(C(=O)C(C)n2cc(Br)cn2)CC1` (stereo not given), the figure is -7.56%; as for `O=C1CNc2ncnc(N3CCN(Cc4ccccc4)CC3)c2N1`, 12.6%; as for `COC(=O)c1ccc(S(=O)(=O)N2CCCn3ncnc32)s1`, 0.743%. As for `Cc1ccccc1OCCN1CCN(Cc2cnn(CCO)c2)CC1`, the figure is 4.76%; as for `Cc1nc(CC(=O)N2CCCC2Cn2cccn2)cs1` (stereo not given), -5%; as for `O=C(O)CC1COCCN1Cc1ccccc1OCCc1ccccc1` (stereo not given), -3.62%.

For the molecule `CC[C@@H]1N(Cc2ccc(F)cc2)CCC[C@]12CCC(=O)N2C`, the cytotoxicity at 70.5 h is -9.15%. As for `CCC(C)CNC(=O)[C@@H]1CCCN1c1nccc(Nc2ccccc2)n1` (stereo not given in full), the figure is 1.56%; as for `CC(C)(C)C(O)CN1CCN(C(=O)c2ccc3c(c2)COC3)CC1` (stereo not given), 10.4%; as for `COc1cccc(CNCCc2cc(F)cc3c2OCOC3)c1`, 14.9%. The result for `CCn1nc(C(C)C)cc1C(=O)NCc1nc2ccc(OC)cc2[nH]1` reads -14.7%; that for `O=C(c1cnccn1)N1C[C@@H](OCc2ccncc2)[C@@H]2OCCC[C@@H]21`, -8.9%; that for `CN(Cc1cnn(C)c1)CC1CCCN1c1cccnn1` (stereo not given), -4.73%. As for `CCn1cc(NC(=O)NC(CO)Cc2c[nH]c3ccccc23)cn1` (stereo not given), the figure is -4.69%; as for `NC(=O)C1CCCN1C(=O)c1cc(C2CC2)nc2ccc(F)cc12` (stereo not given), 18.9%; as for `Cc1cnn(CCNCC(O)c2ccc(C(F)(F)F)cc2)c1` (stereo not given), -17.1%. In the case of `CCC1CCCCCN1C(=O)c1coc(S(=O)(=O)N(C)C)c1` (stereo not given), the cytotoxicity at 70.5 h is -12.3%. The result for `CC1(C)CN(C(=O)CC2CCC2)C[C@]1(C)O` reads -2.02%; that for `Cn1cc(CCCNS(=O)(=O)N2CCCC2c2ccco2)cn1` (stereo not given), -2.37%; that for `Cc1cc(S(=O)(=O)N2CCc3ccc(F)cc32)cc(C(=O)O)c1C`, 6.28%. As to `Cc1cccc(C2(C(=O)NCC(C)CN3CCCC3=O)CC2)c1` (stereo not given), the cytotoxicity at 70.5 h was -11.5%.

`CC(C)c1cc(COCCCC(=O)O)no1`: the cytotoxicity at 70.5 h was -2.63%. The result for `O=c1c2sccc2nc2n1CCN(Cc1ccccc1C(F)(F)F)CC2` reads -10.4%; that for `Cc1ccc(F)c(NC(=O)CCC(=O)N(C)Cc2cc(C3CC3)[nH]n2)c1`, -8.19%. Regarding `CCOCc1ccccc1NC(=O)NC1CCN(C(=O)OCC)CC1`, the cytotoxicity at 70.5 h was -5.57%. As for `COc1ccc(C2CCCN2Cc2ccc(S(=O)(=O)N(C)C)o2)cc1` (stereo not given), the figure is -1.88%. The result for `CCC(C)C(=O)NS(=O)(=O)c1ccc(C#N)cc1C(F)(F)F` (stereo not given) reads -3.39%; that for `Cc1cc(Br)oc1C(=O)N1CCC(N(C)C)CC1`, 33.8%; that for `COC(=O)NCC(=O)N1CCC(Oc2cccc(C)c2)CC1`, -5.33%. `O=C(c1ccccc1-n1cnnn1)N1CCC2(CC1)OCCO2`: the cytotoxicity at 70.5 h is -1.41%. The result for `CNC(=O)c1ccc(C(=O)N2CCCC2c2c(C)nn(C)c2C)cn1` (stereo not given) reads -4.27%; that for `O=C(NCCOc1cccc(Cl)c1Cl)N1CCC2(CC1)OCCO2`, -4.01%; that for `COc1ccc2c(c1)CCCN(CC(=O)NCC1CCCO1)C2` (stereo not given), -5.84%. For the molecule `Cc1nsc(NCc2ccc(CS(=O)(=O)NC(C)C)cc2)n1`, the cytotoxicity at 70.5 h is -9.39%. As for `O=S(=O)(Nc1ccc(N2CCOCC2)cn1)c1cccc(F)c1`, the figure is -3.99%; as for `CS(=O)(=O)N1CCCC12CCCN(S(=O)(=O)c1cc(F)cc(F)c1)C2` (stereo not given), -5.59%. As for `CN1CCC2(CC1)OC(C(=O)NCc1cccnc1)Cn1ccnc12` (stereo not given), the figure is -11.2%; as for `O=C(NCCOc1ccc(F)cc1)C1CCCN(C(=O)C2CC2)C1` (stereo not given), -17.7%. As for `N#Cc1ccnc(N2CCN(C3CCOC3=O)CC2)c1` (stereo not given), the figure is 14.2%; as for `Cc1n[nH]c2c1C(c1ccc(Cl)cc1)SCC(=O)N2` (stereo not given), 10.6%. `CC(c1ccccn1)N(C)C(=O)NCCn1c(=O)oc2ccccc21` (stereo not given): the cytotoxicity at 70.5 h is 6.82%. As for `CCc1ccc(CN(C)c2ccc(-c3nc(COC)no3)cn2)nc1`, the figure is -4.59%; as for `Cc1[nH]nc(CCC(=O)N2C[C@H]3CC[C@@H]2CN(C(=O)N(C)C)C3)c1C`, -8.2%; as for `CCCS(=O)(=O)N1CCCN(CCCOC)CC1`, 8.01%. As for `CSCc1cc(F)ccc1CNC(=O)N1CCOCC1`, the figure is -10.7%. In the case of `Cc1nc(CN2CC3(CCN(c4cnccn4)C3)CC2=O)cs1` (stereo not given), the cytotoxicity at 70.5 h was -10.3%.

For `COC(=O)c1cccc(S(=O)(=O)NC(=O)c2ccccc2F)c1`, the cytotoxicity at 70.5 h is -5.66%. Turning to `Cn1ncc2c1CCCN(C(=O)C1CC1)C2`, the cytotoxicity at 70.5 h was 14.3%. The result for `Cc1ccc(C(=O)NC2CCN(C(C)C)C2)c(=O)[nH]1` (stereo not given) reads -14.4%; that for `CCC(O)Cn1nc(CCSC)nc1-c1ccc2c(c1)OCCO2` (stereo not given), 15.5%; that for `Cc1nc(CN2CC[C@H]3[C@H]2CCN3c2nncs2)cs1`, -3.7%.

With `CCCc1noc(C(C)N(CC)Cc2ccco2)n1` (stereo not given), the cytotoxicity at 70.5 h turned out to be 7.58%. Turning to `CN(Cc1ccco1)C(=O)C1CSCN1C(=O)c1cccnc1` (stereo not given), the cytotoxicity at 70.5 h was -15.1%. As for `O=S(=O)(Nc1c(F)cccc1N1CCCC1)c1cncc(F)c1`, the figure is -5.83%; as for `CCOCCN1CCN(Cc2nc(CC(C)C)no2)CC1`, 1.47%.

Turning to `O=C1CSC(c2ccc(O)cc2)c2c(n(C3CCOCC3)[nH]c2=O)N1` (stereo not given), the cytotoxicity at 70.5 h is -23.1%. The result for `CC(NCc1cnc(C2CCC2)s1)c1cccc(-n2ccnc2)c1` (stereo not given) reads -5.22%; that for `CC(C)c1nsc(NC2CC(=O)N(C(C)(C)C)C2)n1` (stereo not given), -8.61%; that for `O=C([C@H]1CCCO1)N1CCOC2(CCCN(c3ncccc3F)C2)C1` (stereo not given in full), -15.7%. Consider `Cc1nc(C)n(CC2CCCN(CCCS(=O)(=O)N(C)C)C2)n1` (stereo not given), for which the cytotoxicity at 70.5 h is -0.887%. As for `CC(C)N(C)CCCNC(=O)c1cnc(-c2ccccc2)nc1`, the figure is 2.52%. For the molecule `c1ccc(-c2nc(CNC3CCCN(c4cccnn4)C3)no2)cc1` (stereo not given), the cytotoxicity at 70.5 h stood at 18.6%. The result for `Cc1ccc(C(=O)NCC(C)CN2CCCC2=O)c(=O)[nH]1` (stereo not given) reads -113%.

Consider `Cc1cccc(CN2CCO[C@@H]3CC(COc4ccccn4)C[C@H]32)n1` (stereo not given in full), for which the cytotoxicity at 70.5 h came out at 5.17%. The result for `CC(=O)N[C@@H]1CN(CC(=O)NCc2ccccc2C)C[C@H]1C(C)C` reads -6.75%.

`CN(c1ccncn1)C1CC2(CCN(C(=O)c3cncs3)C2)C1` (stereo not given): the cytotoxicity at 70.5 h was -2.06%.

For `O=C(CCn1cccn1)N1C[C@@H]2CC[C@H](C1)N(Cc1ccccn1)C2=O`, the cytotoxicity at 70.5 h was -2.38%.

Regarding `N#Cc1cnc2ccccc2c1N1CCN(C(=O)C2CCC2)CC1`, the cytotoxicity at 70.5 h was -1.5%. The result for `CS(=O)(=O)N1CCN(C(=O)c2cc(-c3ccco3)cs2)CC1` reads 0.0321%; that for `Cc1cc(C(F)(F)F)nc(CNC(=O)C2CCCCCN2C)n1` (stereo not given), 2.11%. The result for `CN(C)CCOCc1nnc2n1CCN(c1cnccn1)CC2` reads 12.4%.

On to `Cc1nc(O)cc(C2(C)CCCNC2)n1` (stereo not given), for which the cytotoxicity at 70.5 h was -3.13%. Regarding `CC(C)NC(=O)Nc1ccc(CS(C)(=O)=O)cc1`, the cytotoxicity at 70.5 h was -0.657%.

Turning to `CC(C)C(C(=O)N1CCCN(Cc2cscn2)CC1)n1cncn1` (stereo not given), the cytotoxicity at 70.5 h is -4.6%. The result for `Cc1ccnc2c1NC(=O)CN2C(=O)CCC(F)(F)F` reads -6.32%; that for `CC(C)OC(=O)CCNC(=O)Nc1cccc2ncccc12`, 8.18%; that for `O=C(Nc1ccc(F)cc1)N1C[C@H]2CC[C@@H]1CN(Cc1cccnc1)C2`, -3.12%. The result for `O=c1[nH]c(-c2ccccc2)nc2c1CCN(S(=O)(=O)N1CCCC1)C2` reads -7.26%; that for `CC(=O)NC(C)C(=O)Nc1ccc(OCc2cccc(F)c2)cc1C` (stereo not given), -9.98%; that for `COc1ccc(C2=NOC(C#N)C2)cc1` (stereo not given), 8.47%.

As for `OC1(CNCCN2CCc3ccccc32)CNCCOC1` (stereo not given), the cytotoxicity at 70.5 h was -11%. As for `CC(C)N(C)Cc1cn2c(n1)CN(C(=O)c1ccc[nH]1)CC2`, the figure is -5.19%.

(Values after ChEMBL document CHEMBL3507680, “University of Dundee, Gates Library screen for HepG2 cell viability”.)
